Measurements from patent US8552176B2 (priority 2010, dated 2013).

Assays:
IGROV1 = test: NCI 60 Human Tumor Cell Line Anticancer Screen; assay type: cell-based; settings: IGROV1, Ovary
A549 = test: cells; assay type: cell-based, human; settings: read-out: GI50 A549 lung (+p53)
HT29 [1] = test: NCI 60 Human Tumor Cell Line Anticancer Screen; assay type: cell-based; settings: HT29, Colon
M14 = test: NCI 60 Human Tumor Cell Line Anticancer Screen; assay type: cell-based; settings: M14, Melanoma
SF-268 [2] = test: NCI 60 Human Tumor Cell Line Anticancer Screen; assay type: cell-based; settings: SF-268, CNS
HCT-15 = test: NCI 60 Human Tumor Cell Line Anticancer Screen; assay type: cell-based; settings: HCT-15, Colon
NCI-H460 [3] = test: NCI 60 Human Tumor Cell Line Anticancer Screen; assay type: cell-based; settings: NCI-H460, Non-small cell lung
U251 = test: NCI 60 Human Tumor Cell Line Anticancer Screen; assay type: cell-based; settings: U251, CNS
NCI-H522 = test: NCI 60 Human Tumor Cell Line Anticancer Screen; assay type: cell-based; settings: NCI-H522, Non-small cell lung
COLO 205 = test: NCI 60 Human Tumor Cell Line Anticancer Screen; assay type: cell-based; settings: COLO 205, Colon
A549/ATCC = test: NCI 60 Human Tumor Cell Line Anticancer Screen; assay type: cell-based; settings: Non-small cell lung
CAKI-1 = test: NCI 60 Human Tumor Cell Line Anticancer Screen; assay type: cell-based; settings: CAKI-1, Renal
NCI-H23 = test: NCI 60 Human Tumor Cell Line Anticancer Screen; assay type: cell-based; settings: NCI-H23, Non-small cell lung
UACC-62 = test: NCI 60 Human Tumor Cell Line Anticancer Screen; assay type: cell-based; settings: UACC-62, Melanoma
SK-MEL-28 = test: NCI 60 Human Tumor Cell Line Anticancer Screen; assay type: cell-based; settings: SK-MEL-28, Melanoma
HT29 [4] = test: cells; assay type: cell-based, human
SKOV3 = test: NCI 60 Human Tumor Cell Line Anticancer Screen; assay type: cell-based; settings: SKOV3, Ovary
SF-295 = test: NCI 60 Human Tumor Cell Line Anticancer Screen; assay type: cell-based; settings: SF-295, CNS
H1299 = test: cells; assay type: cell-based, human
RPMI-8226 = test: NCI 60 Human Tumor Cell Line Anticancer Screen; assay type: cell-based; settings: RPMI-8226, Leukemia
HCT-116 = test: NCI 60 Human Tumor Cell Line Anticancer Screen; assay type: cell-based; settings: HCT-116, Colon
EKVX = test: NCI 60 Human Tumor Cell Line Anticancer Screen; assay type: cell-based; settings: Non-small cell lung
NCI-H226 = test: NCI 60 Human Tumor Cell Line Anticancer Screen; assay type: cell-based; settings: NCI-H226, Non-small cell lung
MALME-3M = test: NCI 60 Human Tumor Cell Line Anticancer Screen; assay type: cell-based; settings: Melanoma
SNB-19 = test: NCI 60 Human Tumor Cell Line Anticancer Screen; assay type: cell-based; settings: SNB-19, CNS
SR = test: NCI 60 Human Tumor Cell Line Anticancer Screen; assay type: cell-based; settings: Leukemia
SF-539 = test: NCI 60 Human Tumor Cell Line Anticancer Screen; assay type: cell-based; settings: SF-539, CNS
DU-145 = test: NCI 60 Human Tumor Cell Line Anticancer Screen; assay type: cell-based; settings: DU-145, Prostate
786-0 = test: NCI 60 Human Tumor Cell Line Anticancer Screen; assay type: cell-based; settings: 786-0, Renal
MCF7 = test: NCI 60 Human Tumor Cell Line Anticancer Screen; assay type: cell-based; settings: MCF7, Breast
NCI-H460 [5] = test: cells; assay type: cell-based, human; settings: read-out: GI50 NCI-H460 lung
TK-10 = test: NCI 60 Human Tumor Cell Line Anticancer Screen; assay type: cell-based; settings: TK-10, Renal
T-47D = test: NCI 60 Human Tumor Cell Line Anticancer Screen; assay type: cell-based; settings: Breast
HOP-62 = test: NCI 60 Human Tumor Cell Line Anticancer Screen; assay type: cell-based; settings: HOP-62, Non-small cell lung
OVCAR-8 = test: NCI 60 Human Tumor Cell Line Anticancer Screen; assay type: cell-based; settings: OVCAR-8, Ovary
OVCAR-4 = test: NCI 60 Human Tumor Cell Line Anticancer Screen; assay type: cell-based; settings: OVCAR-4, Ovary
SF-268 [6] = test: cells; assay type: cell-based, human; settings: read-out: GI50 SF-268 CNS
HL-60 (TB) = assay type: cell-based, human
SNB-75 = test: NCI 60 Human Tumor Cell Line Anticancer Screen; assay type: cell-based; settings: SNB-75, CNS

## CON(CCCCc1ccc(N(CCCl)CCCl)cc1)C1OCC(O)C1O (stereo not shown) [Compound 60]
IGROV1
  GI50: 1.21 µM
A549
  GI50: 1.1 ± 0.1 µM
HT29 [1]
  GI50: 26.6 µM
HT29 [1]; 10 μM
  Inhibition at 10 μM: 70.71%
M14
  GI50: 9.25 µM
M14; 10 μM
  Inhibition at 10 μM: 67.23%
SF-268 [2]
  GI50: 5.75 µM
SF-268 [2]; 10 μM
  Inhibition at 10 μM: 67.83%
HCT-15
  GI50: 19.7 µM
HCT-15; 10 μM
  Inhibition at 10 μM: 77.10%
NCI-H460 [3]
  GI50: 3.76 µM
NCI-H460 [3]; 10 μM
  Inhibition at 10 μM: 35.80%
U251
  GI50: 13.1 µM
U251; 10 μM
  Inhibition at 10 μM: 59.94%
NCI-H522
  GI50: 10 µM
NCI-H522; 10 μM
  Inhibition at 10 μM: 52.38%
COLO 205
  GI50: 12.7 µM
COLO 205; 10 μM
  Inhibition at 10 μM: 93.34%
A549/ATCC
  GI50: 12.2 µM
A549/ATCC; 10 μM
  Inhibition at 10 μM: 69.72%
CAKI-1
  GI50: 11.5 µM
CAKI-1; 10 μM
  Inhibition at 10 μM: 13.59%
NCI-H23
  GI50: 7.15 µM
NCI-H23; 10 μM
  Inhibition at 10 μM: 54.44%
UACC-62
  GI50: 1.69 µM
UACC-62; 10 μM
  Inhibition at 10 μM: 52.06%
SK-MEL-28
  GI50: 36.5 µM
SK-MEL-28; 10 μM
  Inhibition at 10 μM: 116.87%
HT29 [4]
  improved activity over the parent drug: 12 fold
HT29 [4]; read-out: GI50 HT29 colorectal
  GI50: 0.41 ± 0.06 µM
SKOV3
  GI50: 17.9 µM
SKOV3; 10 μM
  Inhibition at 10 μM: 72.76%
SF-295
  GI50: 6.47 µM
SF-295; 10 μM
  Inhibition at 10 μM: 56.59%
H1299
  improved activity over the parent drug: 13 fold
H1299; read-out: GI50 H1299 lung (−p53)
  GI50: 0.37 ± 0.04 µM
RPMI-8226
  Inhibition at 10 μM: 15.94%
HCT-116
  GI50: 14.5 µM
HCT-116; 10 μM
  Inhibition at 10 μM: 69.37%
EKVX
  GI50: 37.9 µM
EKVX; 10 μM
  Inhibition at 10 μM: 91.24%
NCI-H226
  GI50: 0.925 µM
NCI-H226; 10 μM
  Inhibition at 10 μM: 84.25%
MALME-3M
  GI50: 20.2 µM
MALME-3M; 10 μM
  Inhibition at 10 μM: 69.73%
SNB-19
  GI50: 33.4 µM
SNB-19; 10 μM
  Inhibition at 10 μM: 65.81%
SR
  GI50: 0.386 µM
SR; 10 μM
  Inhibition at 10 μM: 48.67%
SF-539
  GI50: 8.8 µM
SF-539; 10 μM
  Inhibition at 10 μM: 51.79%
DU-145
  GI50: 4.84 µM
DU-145; 10 μM
  Inhibition at 10 μM: 56.78%
786-0
  GI50: 6.16 µM
786-0; 10 μM
  Inhibition at 10 μM: 67.90%
MCF7
  GI50: 4.51 µM
MCF7; 10 μM
  Inhibition at 10 μM: 32.40%
NCI-H460 [5]
  GI50: 1.7 ± 0.4 µM
TK-10
  GI50: 31.7 µM
TK-10; 10 μM
  Inhibition at 10 μM: 97.20%
T-47D
  GI50: 6.37 µM
T-47D; 10 μM
  Inhibition at 10 μM: 48.01%
HOP-62
  GI50: 8.28 µM
HOP-62; 10 μM
  Inhibition at 10 μM: 73.20%
OVCAR-8
  GI50: 9.13 µM
OVCAR-8; 10 μM
  Inhibition at 10 μM: 68.13%
OVCAR-4
  GI50: 29.2 µM
OVCAR-4; 10 μM
  Inhibition at 10 μM: 77.16%
SF-268 [6]
  GI50: 1.5 ± 0.1 µM
HL-60 (TB)
  GI50: 1.88 µM
  Inhibition at 10 μM: 68.31%
SNB-75
  GI50: 19.5 µM
SNB-75; 10 μM
  Inhibition at 10 μM: 66.74%
